From patent publication US6022851A, “Lantibiotic related to actagardine, and processes for the preparation and use thereof” (priority 1997, dated 2000)
Read-outs that look alike come from different tables or passages of the source.

What was measured:
S. aureus 011DU5 = test: in-vitro antibacterial activity (MIC), incubation time 18 h; assay type: cell-based; settings: incubation time 18 h
Source text: (§1) Tables 4 to 6 show the in-vitro antibacterial activity (MIC values[μg/ml]) of the actagardine (Acta) and of the compounds according to the invention.

S. aureus 011HT1 = test: as above; assay type: cell-based; settings: incubation time 18 h
Source text: as §1

E. faecalis 02D2HT10 = test: as above; assay type: cell-based; settings: incubation time 18 h
Source text: as §1

S. epidermidis 012GO42 = test: as above; assay type: cell-based; settings: incubation time 18 h
Source text: as §1

S. aureus 0121O64 = test: as above; assay type: cell-based; settings: incubation time 18 h
Source text: as §1

S. milleri 02milGR12 = test: as above; assay type: cell-based; settings: incubation time 18 h
Source text: as §1

S. mitis 02mitGR16 = test: as above; assay type: cell-based; settings: incubation time 18 h
Source text: as §1

E. faecalis 02D2DU18 = test: as above; assay type: cell-based; settings: incubation time 18 h
Source text: as §1

E. faecalis 02D2UC5 = test: as above; assay type: cell-based; settings: incubation time 18 h
Source text: as §1

S. epidermidis 012GO20 = test: as above; assay type: cell-based; settings: incubation time 18 h
Source text: as §1

S. pyogenes O2A1SJ1 = test: as above; assay type: cell-based; settings: incubation time 18 h
Source text: as §1

S. pneumoniae 030BI2 = test: as above; assay type: cell-based; settings: incubation time 18 h
Source text: as §1

S. aureus 011HT3 = test: as above; assay type: cell-based; settings: incubation time 18 h
Source text: as §1

E. faecalis 02D2HM9 = test: as above; assay type: cell-based; settings: incubation time 18 h
Source text: as §1

S. pyogenes 02A1FI6 = test: as above; assay type: cell-based; settings: incubation time 18 h
Source text: as §1

S. pyogenes 02A1UC1 = test: as above; assay type: cell-based; settings: incubation time 18 h
Source text: as §1

Strepto gr. G 02G0CB2 = test: as above; assay type: cell-based; settings: incubation time 18 h
Source text: as §1

S. aureus 011HT18 = test: as above; assay type: cell-based; settings: incubation time 18 h
Source text: as §1

[1] = test system: Staph. coag. negative 012HT5; test: as above; assay type: cell-based; settings: incubation time 18 h
Source text: as §1

S. aureus Exp54146 = assay type: cell-based; settings: incubation time 24 h
Source text: as §1

S. aureus SG511 = assay type: cell-based; settings: incubation time 24 h
Source text: as §1

S. pyogenes A561 = assay type: cell-based; settings: incubation time 24 h
Source text: as §1

E. Coli = assay type: cell-based; settings: incubation time 24 h
Source text: as §1

Solubility = assay type: physicochemical; settings: in methanol and water
Stability in solution = assay type: physicochemical

di-Boc-Lys(0)-actagardine [Boc--Lys--Acta]
MIC values (S. aureus 011DU5): 40 µg/mL | MIC values (S. aureus 011HT1): 10 µg/mL | MIC values (E. faecalis 02D2HT10): > 40 µg/mL | MIC values (S. epidermidis 012GO42): > 40 µg/mL | MIC values (S. aureus 0121O64): > 40 µg/mL | MIC values (S. milleri 02milGR12): 5 µg/mL | MIC values (S. mitis 02mitGR16): 5 µg/mL | MIC values (E. faecalis 02D2DU18): 10 µg/mL | MIC values (E. faecalis 02D2UC5): 40 µg/mL | MIC values (S. epidermidis 012GO20): > 40 µg/mL | MIC values (S. pyogenes O2A1SJ1): 0.08 µg/mL | MIC values (S. pneumoniae 030BI2): 1.2 µg/mL | MIC values (S. aureus 011HT3; S. aureus 011HT3 + 10% serum): 20 µg/mL | MIC values (S. aureus 011HT3; S. aureus 011HT3 + 50% serum): 40 µg/mL | MIC values (S. aureus 011HT3; S. aureus 011HT3): 10 µg/mL | MIC values (E. faecalis 02D2HM9): > 40 µg/mL | MIC values (S. pyogenes 02A1FI6): <= 0.04 μg/ml | MIC values (S. pyogenes 02A1UC1): <= 0.04 μg/ml | MIC values (Strepto gr. G 02G0CB2): 2.5 µg/mL | MIC values (S. aureus 011HT18): > 40 µg/mL | MIC values [1]: > 40 µg/mL | MIC values (S. aureus Exp54146): 10 µg/mL | MIC values (S. aureus SG511; S. aureus SG511 + 10% serum): 10 µg/mL | MIC values (S. aureus SG511; S. aureus SG511): 2.5 µg/mL | MIC values (S. pyogenes A561): <= 0.04 μg/ml | MIC values (E. Coli): > 40 µg/mL

CC[C@H](C)[C@@H]1NC(=O)C2NC(=O)[C@H](CC(C)C)NC(=O)C(NC(=O)C3CSCC(NC(=O)[C@H](C)N)C(=O)N[C@@H](CO)C(=O)NCC(=O)N[C@@H](Cc4c[nH]c5ccccc45)C(=O)N[C@@H](C(C)C)C(=O)N3)C(C)SCC(NC(=O)[C@H](CCC(=O)O)NC1=O)C(=O)NCC(=O)NC1C(=O)N[C@@H](C(C)C)C(=O)N[C@@H]([C@@H](C)CC)C(=O)NC(CSC2C)C(=O)N[C@@H](C)C(=O)NC(C(=O)O)C[S+]([O-])C1C (stereo partly shown) [Ala(0)-actagardine]
solubility (Solubility): soluble | stability (Stability in solution; in neutral and mildly alkaline medium): Stable | stability (Stability in solution; in strongly acidic and strongly alkaline solution): unstable | cytotoxic actions or other toxicities (Tolerability / toxicity): not observed | tolerability (Tolerability / toxicity; at the active concentration and above): good
